According to patent US20250122181A1, “BENZIMIDAZOLES AS MODULATORS OF IL-17” (Janssen Pharmaceutica NV, priority 2021, published 2025):

Experiments:
[1] = target: IL-17A(FLAG-Tagged): IL-17RA(His-Tagged) (Homo sapiens, UniProt Q16552, K93Q); assay: IL-17A(FLAG-Tagged): IL-17RA(His-Tagged) Binding Disruption Eu-HTRF Assay, Protocol 1; details: Protocol 1, FLAG tagged IL-17A 2.5 nM; simple average if tested more than once
From the text: An antibody directed against the FLAG tag of IL-17A (SEQ ID NO: 1) is labeled with the HTRF donor chromophore (Europium-cryptate). IL-17A is present as a dimer that is “locked into” this quaternary structure due to the formation of loop-spanning […] disulfide bridges. The construct of IL-17RA used in the assay excludes the […] portion of the receptor and is fused to a C-terminal 10×His tag (SEQ ID NO:2). An antibody directed against the His tag of the IL-17RA chimera is labeled with the HTRF acceptor chromophore (“D2”). The fluorescence-resonance energy transfer (FRET) depends on the vicinity of the donor chromophore to the acceptor, and interruption of the binding between the IL-17A and IL-17RA causes the reduction/loss of FRET. Therefore, this assay allows to evaluate the compound effect on the binding IL-17A and IL-17RA by monitoring the fluorescence intensity of donor vs acceptor. The assay was run using either Protocol 1 or Protocol 2 as described below.
Protocol 1. 40 nl of 2-fold serial diluted compound solution for total 22 dilution points is added into each well of a 1536-well, white, low-volume, non-binding plate (Greiner #782904), then 2 μl of FLAG tagged IL-17A at 2× final concentration (2.5 nM) in solution of PBS+0.01% Triton-X100 is added to each well. The assay plate is briefly centrifuged then incubated for 1 h at rt. A mixed solution is prepared containing 2×5 nM 10HIS×IL-17RA, 2×2.5 nM Eu-anti-FLAG (CISBIO), 2×5 nM D2-anti-HIS (CISBIO) in PBS+0.01% Triton-X100+200 mM Potassium Fluoride (Sigma 60238) and 2 μl of mix is added to each well of the assay plate. The plate is briefly centrifuged then incubated for 2 h at rt. The HTRF intensities at the wavelength of donor (620 nm) and acceptor (665 nm) are measured using BMG Pherastar. The ratio between intensities at two wavelengths is calculated and plotted against the compound concentration and the data is fitted to a one-site competition model to yield IC50 of the compound.

[2] = test system: IL-17A-induced G-CSF production in human normal keratinocyte (NHK); assay: NHK Assay: IL-17A-induced G-CSF production in human normal keratinocyte; assay type: cell-based; details: 24 h, IL-17A 5 ng/mL, simple average if tested more than once
Protocol: IL-17A acts directly on keratinocytes through binding to dimeric receptor IL-17RA/RC and drives the production of a number of inflammatory mediators known to be elevated in psoriasis lesional tissue. IL-17A small molecule inhibitors that block the IL-17A to interact with IL-17R would inhibit the IL-17A signaling in its targeted cells such as keratinocytes. The compound functional activity is evaluated for its impact on IL-17A-induced G-CSF production in human normal keratinocyte (NHK).
Adult normal human keratinocytes are cultured in keratinocyte growth medium (Lonza) in a flask till reaching ˜90% confluence, then cells are transferred to a 384-well plate at density of 3000-4000 cell/well. Recombinant human IL-17A (Gibco PHC9174) is pre-incubated with titrated compound or DMSO for 1 h at rt then added to the cell culture plate. The final concentration of IL-17A is 5 ng/mL and DMSO is 0.2%, in the culture containing 5% FBS. Cells are cultured/treated for 24 h at 37° C. Supernatants are collected and G-CSF production is measured through HTRF technology using Human G-CSF Kit (CisBio). G-CSF concentration was extrapolated from the standard curve and IC50 is determined using GraphPad Prism. Cell viability is also evaluated using CellTiter-Glo kit (Promega) and effect of compound on cell viability is compared to DMSO control.

Sequence of UniProt Q16552 (Q16552 with tags, fused parts or gaps K93Q): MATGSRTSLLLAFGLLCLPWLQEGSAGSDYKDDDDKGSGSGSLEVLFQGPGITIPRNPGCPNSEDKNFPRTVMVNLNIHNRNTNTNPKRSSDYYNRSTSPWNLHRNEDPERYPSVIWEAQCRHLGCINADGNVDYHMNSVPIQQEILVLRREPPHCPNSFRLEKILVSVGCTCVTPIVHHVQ

| IC50 [1] | Compound | IC50 ([2]; Homo sapiens, Keratinocyte) | IC50 [2] |
| --- | --- | --- | --- |
| < 50 nM | Cc1nonc1C(=O)NC(c1nc2cc([C@@H](C3CC3)N3C[C@@H](C(F)(F)F)NC3=O)ccc2[nH]1)[C@@H](C)O[C@@H](C)C(F)(F)F (single isomer, unassigned) [Example 13, N-((1R*,2R)-1-(5-((R)-Cyclopropyl((S)-2-oxo-4-(trifluoromethyl)imidazolidin-1-yl)methyl)-1H-benzo[d]imidazol-2-yl)-2-(((S)-1,1,1-trifluoropropan-2-yl)oxy)propyl)-4-methyl-1,2,5-oxadiazole-3-carboxamide] | < 50 nM | – |
| < 50 nM | Cc1nonc1C(=O)N[C@@H](COC(C)(C)C(F)(F)F)c1nc2ccc(CN3CC(F)(F)CNC3=O)cc2[nH]1 [Example 28, (R)—N-(1-(6-((5,5-Difluoro-2-oxotetrahydropyrimidin-1(2H)-yl)methyl)-1H-benzo[d]imidazol-2-yl)-2-((1,1,1-trifluoro-2-methylpropan-2-yl)oxy)ethyl)-4-methyl-1,2,5-oxadiazole-3-carboxamide] | < 50 nM | – |
| < 50 nM | COC[C@H](c1ccc2[nH]c([C@@H](NC(=O)c3nonc3C)[C@@H](C)O[C@@H](C)C(F)(F)F)nc2c1)N1C[C@@H](C(F)(F)F)NC1=O [Example 62, N-((1R,2R)-1-(5-((S)-2-Methoxy-1-((S)-2-oxo-4-(trifluoromethyl)imidazolidin-1-yl)ethyl)-1H-benzo[d]imidazol-2-yl)-2-(((S)-1,1,1-trifluoropropan-2-yl)oxy)propyl)-4-methyl-1,2,5-oxadiazole-3-carboxamide] | < 50 nM | – |
| > 100 nM | COCC(c1ccc2[nH]c([C@H](COC(C)(C)C(F)(F)F)NC(=O)c3nonc3C)nc2c1)N1CC(C)(C)NC1=O (single isomer, unassigned) [Example 49, N—((R)-1-(5-((S*)-1-(4,4-Dimethyl-2-oxoimidazolidin-1-yl)-2-methoxyethyl)-1H-benzo[d]imidazol-2-yl)-2-((1,1,1-trifluoro-2-methylpropan-2-yl)oxy)ethyl)-4-methyl-1,2,5-oxadiazole-3-carboxamide] | – | > 100 nM |
| < 50 nM | C[C@H](c1ccc2[nH]c([C@H](COC(C)(C)C(F)(F)F)NC(=O)c3nonc3C3CC3)nc2c1)N1CC(F)(F)CNC1=O (relative stereo) [Example 25, 4-Cyclopropyl-N—((R)-1-(5-((R*)-1-(5,5-difluoro-2-oxotetrahydropyrimidin-1(2H)-yl)ethyl)-1H-benzo[d]imidazol-2-yl)-2-((1,1,1-trifluoro-2-methylpropan-2-yl)oxy)ethyl)-1,2,5-oxadiazole-3-carboxamide] | < 50 nM | – |
| < 50 nM | Cc1nonc1C(=O)NC(COC(C)(C)C(F)(F)F)c1nc2nc([C@@H](C3CC3)N3CC(F)(F)CNC3=O)ccc2[nH]1 (single isomer, unassigned) [Example 18, N—((R*)-1-(5-((R)-Cyclopropyl(5,5-difluoro-2-oxotetrahydropyrimidin-1(2H)-yl)methyl)-1H-imidazo[4,5-b]pyridin-2-yl)-2-((1,1,1-trifluoro-2-methylpropan-2-yl)oxy)ethyl)-4-methyl-1,2,5-oxadiazole-3-carboxamide] | 50 to 100 nM | – |
| < 50 nM | CC(C)n1nccc1C(=O)N[C@@H](COC(C)(C)C(F)(F)F)c1nc2cc([C@@H](C)N3CC(F)(F)CNC3=O)ccc2[nH]1 (relative stereo) [Example 27, N—((R)-1-(5-((R*)-1-(5,5-Difluoro-2-oxotetrahydropyrimidin-1(2H)-yl)ethyl)-1H-benzo[d]imidazol-2-yl)-2-((1,1,1-trifluoro-2-methylpropan-2-yl)oxy)ethyl)-1-isopropyl-1H-pyrazole-5-carboxamide] | < 50 nM | – |
| < 50 nM | CC(C)(OC[C@H](NC(=O)c1nonc1C1CC1)c1nc2cc(CN3C[C@](C)(C(F)(F)F)NC3=O)ccc2[nH]1)C(F)(F)F (relative stereo) [Example 60, 4-Cyclopropyl-N—((R*)-1-(5-(((R*)-4-methyl-2-oxo-4-(trifluoromethyl)imidazolidin-1-yl)methyl)-1H-benzo[d]imidazol-2-yl)-2-((1,1,1-trifluoro-2-methylpropan-2-yl)oxy)ethyl)-1,2,5-oxadiazole-3-carboxamide] | < 50 nM | – |
| < 50 nM | Cc1nonc1C(=O)N[C@@H](COC(C)(C)C(F)(F)F)c1nc2cc([C@@H](C3CC3)N3CC4(CC4)NC3=O)ccc2[nH]1 [Example 87, N—((R)-1-(5-((R)-Cyclopropyl(5-oxo-4,6-diazaspiro[2.4]heptan-6-yl)methyl)-1H-benzo[d]imidazol-2-yl)-2-((1,1,1-trifluoro-2-methylpropan-2-yl)oxy)ethyl)-4-methyl-1,2,5-oxadiazole-3-carboxamide] | < 50 nM | – |
| – | [2H]C1([2H])NC(=O)N([C@@H](c2ccc3[nH]c([C@H](COC(C)(C)C(F)(F)F)NC(=O)c4nonc4C4CC4)nc3c2)C2CC2)C([2H])([2H])C1(F)F [Example 78, 4-Cyclopropyl-N—((R)-1-(5-((R)-cyclopropyl(5,5-difluoro-2-oxotetrahydropyrimidin-1(2H)-yl-4,4,6,6-d4)methyl)-1H-benzo[d]imidazol-2-yl)-2-((1,1,1-trifluoro-2-methylpropan-2-yl)oxy)ethyl)-1,2,5-oxadiazole-3-carboxamide] | < 50 nM | – |
| – | Cc1nonc1C(=O)N[C@@H](COC(C)(C)C(F)(F)F)c1nc2cc([C@@H](C3CC3)N3CC(CC(F)(F)F)NC3=O)ccc2[nH]1 (single isomer, unassigned) [Example 89, N—((R)-1-(5-((R)-Cyclopropyl((S*)-2-oxo-4-(2,2,2-trifluoroethyl)imidazolidin-1-yl)methyl)-1H-benzo[d]imidazol-2-yl)-2-((1,1,1-trifluoro-2-methylpropan-2-yl)oxy)ethyl)-4-methyl-1,2,5-oxadiazole-3-carboxamide] | – | > 100 nM |
| – | COC[C@H](c1ccc2[nH]c([C@@H](NC(=O)c3nonc3C)[C@@H](C)OC3CC3)nc2c1)N1CC(F)(F)CNC1=O [Example 65, N-((1R,2R)-2-Cyclopropoxy-1-(5-((S)-1-(5,5-difluoro-2-oxotetrahydropyrimidin-1(2H)-yl)-2-methoxyethyl)-1H-benzo[d]imidazol-2-yl)propyl)-4-methyl-1,2,5-oxadiazole-3-carboxamide] | < 50 nM | – |
| – | COC[C@H](c1ccc2[nH]c([C@@H](NC(=O)c3nonc3C3CC3)[C@@H](C)OC3CC3)nc2c1)N1CC(F)(F)CNC1=O [Example 43, N-((1R,2R)-2-Cyclopropoxy-1-(5-((S)-1-(5,5-difluoro-2-oxotetrahydropyrimidin-1(2H)-yl)-2-methoxyethyl)-1H-benzo[d]imidazol-2-yl)propyl)-4-cyclopropyl-1,2,5-oxadiazole-3-carboxamide] | < 50 nM | – |
| – | C[C@@H](O[C@H](C)C(F)(F)F)[C@H](NC(=O)c1nonc1C1CC1)c1nc2ccc(CN3C[C@@H](C(F)(F)F)NC3=O)c(F)c2[nH]1 [Example 93, 4-Cyclopropyl-N-[(1R,2R)-1-[7-fluoro-6-[[(4S)-2-oxo-4-(trifluoromethyl)imidazolidin-1-yl]methyl]-1H-benzimidazol-2-yl]-2-[(1R)-2,2,2-trifluoro-1-methyl-ethoxy]propyl]-1,2,5-oxadiazole-3-carboxamide] | < 50 nM | – |
| – | [2H]C1([2H])NC(=O)N([C@@H](c2ccc3[nH]c([C@H](COC(C)(C)C(F)(F)F)NC(=O)c4ccnn4C(C)C)nc3c2)C2CC2)C([2H])([2H])C1(F)F [Example 79, N—((R)-1-(5-((R)-Cyclopropyl(5,5-difluoro-2-oxotetrahydropyrimidin-1(2H)-yl-4,4,6,6-d4)methyl)-1H-benzo[d]imidazol-2-yl)-2-((1,1,1-trifluoro-2-methylpropan-2-yl)oxy)ethyl)-1-isopropyl-1H-pyrazole-5-carboxamide] | < 50 nM | – |
